This note sets out measurements from patent US10464926B2, “Heterobicyclic compounds and their use for the treatment of tuberculosis” (OTSUKA PHARMACEUTICAL CO., LTD., priority 2014, dated 2019).

In one data set the test system is Mycobacterium tuberculosis (M. tuberculosis Kurono). Put plainly: Antibacterial test (agar dilution method), M. tuberculosis Kurono. The data set is classed as cell-based. As to conditions: 7H11 agar medium, about 10^6 CFU/mL, 37° C. for 14 days. Background: Agar dilution tests growth on a series of plates holding different concentrations.
For `O=C1CCc2c(OCC3(O)CCC(O)(c4ccc(Cl)cc4F)CC3)ccc(F)c2N1` (stereo not drawn) [Example 465, 5-{[trans-4-(4-Chloro-2-fluorophenyl)-1,4-dihydroxycyclohexyl]methoxy}-8-fluoro-3,4-dihydroquinolin-2(1H)-one], the “Minimum inhibitory concentration (MIC) kurono” value is less than 0.39 µg/mL.

Regarding `O=C1CCc2c(OCC3(O)CCC(c4ccc(Cl)cc4F)CC3)ccc(F)c2N1` (stereo not drawn) [Example 469, 5-{[cis-4-(4-Chloro-2-fluorophenyl)-1-hydroxycyclohexyl]methoxy}-8-fluoro-3,4-dihydroquinolin-2(1H)-one], the “Minimum inhibitory concentration (MIC) kurono” value was less than 0.39 µg/mL.

The data set is the same for the next values; noted with them: Mycobacterium tuberculosis, 336 h; 7H11 agar medium, about 10^6 CFU/mL, 37° C. for 14 days; read-out: Minimum inhibitory concentration (MIC) kurono.
As to `O=c1ccc2c(OC[C@]3(O)CCN(c4ccc(Br)cc4F)C[C@H]3O)ccc(F)c2[nH]1` (relative stereo) [Example 369, 5-{[(3R*,4R*)-1-(4-Bromo-2-fluorophenyl)-3,4-dihydroxypiperidin-4-yl]methoxy}-8-fluoroquinolin-2(1H)-one], the MIC is less than 0.39 µg/mL.

For the compound `O=C1CCc2c(OC[C@H]3CCN(c4ccc(Cl)cc4F)C[C@@H]3O)ccc(F)c2N1` (relative stereo) [Example 419, 5-{[(3R*,4R*)-1-(4-Chloro-2-fluorophenyl)-3-hydroxypiperidin-4-yl]methoxy}-8-fluoro-3,4-dihydroquinolin-2(1H)-one], the MIC is less than 0.39 µg/mL.

`O=C1CCc2c(OC[C@]3(O)CC[C@@H](c4ccc(Cl)cc4F)C[C@H]3O)ccc(F)c2N1` (relative stereo) [Example 471, 5-{[(1R*,2R*,4R*)-4-(4-Chloro-2-fluorophenyl)-1,2-dihydroxycyclohexyl]methoxy}-8-fluoro-3,4-dihydroquinolin-2(1H)-one]: the MIC is less than 0.39 µg/mL.

For `O=C1CCc2c(OC[C@]3(O)CC[C@@](O)(c4ccc(Cl)cc4F)C[C@H]3O)ccc(F)c2N1` (relative stereo) [Example 473, 5-{[(1R*,2R*,4S*)-4-(4-Chloro-2-fluorophenyl)-1,2,4-trihydroxycyclohexyl]methoxy}-8-fluoro-3,4-dihydroquinolin-2(1H)-one], the MIC was less than 0.39 µg/mL.

With `NC1(COc2ccc(F)c3c2CCC(=O)N3)CCN(c2ncc(Cl)cc2Cl)CC1` [Example 1, 5-{[4-Amino-1-(3,5-dichloropyridin-2-yl)piperidin-4-yl]methoxy}-8-fluoro-3,4-dihydroquinolin-2(1H)-one], the MIC is less than 0.39 µg/mL.

For the compound `NC1(COc2ccc(Cl)c3c2CCC(=O)N3)CCN(c2ccc(Cl)cc2F)CC1` [Example 14, 5-{[4-Amino-1-(4-chloro-2-fluorophenyl)piperidin-4-yl]methoxy}-8-chloro-3,4-dihydroquinolin-2(1H)-one], the MIC was less than 0.39 µg/mL.

For `NC1(COc2ccc(Cl)c3[nH]c(=O)ccc23)CCN(c2ccc(Cl)cc2F)CC1` [Example 17, 5-{[4-Amino-1-(4-chloro-2-fluorophenyl)piperidin-4-yl]methoxy}-8-chloroquinolin-2(1H)-one], the MIC is less than 0.39 µg/mL.

As for `O=C1CCc2c(OCC3(O)CCN(c4ccc(Cl)cc4)CC3)ccc(F)c2N1` [Example 49, 5-{[1-(4-Chlorophenyl)-4-hydroxypiperidin-4-yl]methoxy}-8-fluoro-3,4-dihydroquinolin-2(1H)-one], the MIC is less than 0.39 µg/mL.

As to `O=C1CCc2c(OCC3(O)CCN(c4ccc(Br)cc4F)CC3)cc(F)c(F)c2N1` [Example 130, 5-{[1-(4-Bromo-2-fluorophenyl)-4-hydroxypiperidin-4-yl]methoxy}-7,8-difluoro-3,4-dihydroquinolin-2(1H)-one], the MIC was less than 0.39 µg/mL.

Regarding `O=C1CCc2c(cc(F)cc2OCC2(O)CCN(c3ccc(Cl)cc3F)CC2)N1` [Example 194, 5-{[1-(4-Chloro-2-fluorophenyl)-4-hydroxypiperidin-4-yl]methoxy}-7-fluoro-3,4-dihydroquinolin-2(1H)-one], the MIC was less than 0.39 µg/mL.

Take `Cc1c(F)cc(OCC2(O)CCN(c3cc(F)c(Cl)cc3Cl)CC2)c2c1NC(=O)CC2` [Example 206, 5-{[1-(2,4-Dichloro-5-fluorophenyl)-4-hydroxypiperidin-4-yl]methoxy}-7-fluoro-8-methyl-3,4-dihydroquinolin-2(1H)-one]: the MIC was less than 0.39 µg/mL.

For `O=C1CCc2c(OCC3(O)CCN(c4c(F)cc(F)cc4F)CC3)cc(F)c(Cl)c2N1` [Example 214, 8-Chloro-7-fluoro-5-{[4-hydroxy-1-(2,4,6-trifluorophenyl)piperidin-4-yl]methoxy}-3,4-dihydroquinolin-2(1H)-one], the MIC was less than 0.39 µg/mL.

For the compound `O=C1CCc2c(OC[C@]3(O)CCN(c4ncc(Cl)cc4Cl)C[C@H]3O)ccc(F)c2N1` [Example 251, 5-{[(3R,4R)-1-(3,5-Dichloropyridin-2-yl)-3,4-dihydroxypiperidin-4-yl]methoxy}-8-fluoro-3,4-dihydroquinolin-2(1H)-one], the MIC was less than 0.39 µg/mL.

Turning to `O=C1CCc2c(OC[C@@]3(O)CCN(c4ncc(Cl)cc4Cl)C[C@@H]3O)ccc(F)c2N1` [Example 252, 5-{[(3S,4S)-1-(3,5-Dichloropyridin-2-yl)-3,4-dihydroxypiperidin-4-yl]methoxy}-8-fluoro-3,4-dihydroquinolin-2(1H)-one], the MIC was less than 0.39 µg/mL.

In the case of `O=C1CCc2c(OC[C@]3(O)CCN(c4c(F)cc(Cl)cc4F)C[C@H]3O)ccc(F)c2N1` [Example 260, 5-{[(3R,4R)-1-(4-Chloro-2,6-difluorophenyl)-3,4-dihydroxypiperidin-4-yl]methoxy}-8-fluoro-3,4-dihydroquinolin-2(1H)-one], the MIC was less than 0.39 µg/mL.

For `O=C1CCc2c(OC[C@@]3(O)CCN(c4ccc(Cl)cc4F)C[C@@H]3O)ccc(F)c2N1` [Example 265, 5-{[(3S,4S)-1-(4-Chloro-2-fluorophenyl)-3,4-dihydroxypiperidin-4-yl]methoxy}-8-fluoro-3,4-dihydroquinolin-2(1H)-one], the MIC is less than 0.39 µg/mL.

Consider `O=C1CCc2c(OC[C@]3(O)CCN(c4nc5ccc(Cl)cc5cc4Br)C[C@H]3O)ccc(F)c2N1` [Example 288, 5-{[(3R,4R)-1-(3-Bromo-6-chloroquinolin-2-yl)-3,4-dihydroxypiperidin-4-yl]methoxy}-8-fluoro-3,4-dihydroquinolin-2(1H)-one], for which the MIC is less than 0.39 µg/mL.

For `O=C1CCc2c(OC[C@]3(O)CCN(c4c(F)cc(Cl)cc4F)C[C@@H]3O)ccc(F)c2N1` [Example 361, 5-{[(3S,4R)-1-(4-Chloro-2,6-difluorophenyl)-3,4-dihydroxypiperidin-4-yl]methoxy}-8-fluoro-3,4-dihydroquinolin-2(1H)-one], the MIC was less than 0.39 µg/mL.

With `O=C1CCc2c(NCC3(O)CCN(c4ncc(Cl)cc4Cl)CC3)ccc(F)c2N1` [Example 372, 5-({[1-(3,5-Dichloropyridin-2-yl)-4-hydroxypiperidin-4-yl]methyl}amino)-8-fluoro-3,4-dihydroquinolin-2(1H)-one], the MIC is less than 0.39 µg/mL.

With `O=C1CCc2c(OCC3(F)CCN(c4ncc(Cl)cc4Cl)CC3)ccc(F)c2N1` [Example 404, 5-{[1-(3,5-Dichloropyridin-2-yl)-4-fluoropiperidin-4-yl]methoxy}-8-fluoro-3,4-dihydroquinolin-2(1H)-one], the MIC is less than 0.39 µg/mL.

In the case of `CCOC(=O)O[C@@H]1CN(c2c(F)cc(Cl)cc2F)CC[C@@]1(O)COc1ccc(F)c2c1CCC(=O)N2` [Example 450, (3R,4R)-1-(4-chloro-2,6-difluorophenyl)-4-{[(8-fluoro-2-oxo-1,2,3,4-tetrahydroquinolin-5-yl)oxy]methyl}-4-hydroxypiperidin-3-yl ethyl carbonate], the MIC was less than 0.39 µg/mL.

For the compound `CC(=O)O[C@@H]1CN(c2ccc(Cl)cc2F)CC[C@@]1(O)COc1ccc(F)c2c1CCC(=O)N2` [Example 454, (3R,4R)-1-(4-Chloro-2-fluorophenyl)-4-{[(8-fluoro-2-oxo-1,2,3,4-tetrahydroquinolin-5-yl)oxy]methyl}-4-hydroxypiperidin-3-yl acetate], the MIC was less than 0.39 µg/mL.

In the case of `O=C1CCc2c(CCC3(O)CCN(c4c(F)cc(Cl)cc4F)CC3)ccc(F)c2N1` [Example 463, 5-{2-[1-(4-Chloro-2,6-difluorophenyl)-4-hydroxypiperidin-4-yl]ethyl}-8-fluoro-3,4-dihydroquinolin-2(1H)-one], the MIC was less than 0.39 µg/mL.

System in the next data set: not given
Experiment: not given
Settings: not given
The compound `O=C1CCc2c(OC[C@]3(O)CCN(c4c(F)cc(Br)cc4F)C[C@H]3O)ccc(F)c2N1` [Example 302] came in with a melting point of 197 to 198 °C.

With `O=C1CCc2c(OC[C@]3(O)CCN(c4c(F)cc(F)cc4Cl)C[C@H]3O)ccc(F)c2N1` [Example 304], the melting point fell in the range of 188 to 189 °C.

As for `O=C1CCc2c(OC[C@]3(O)CCN(c4c(F)cc(F)cc4F)C[C@H]3O)ccc(F)c2N1` [Example 306], the melting point lay in the range of 191 to 192 °C.

`O=C1CCc2c(OC[C@]3(O)CCN(c4c(F)cc(OCC(F)(F)F)cc4F)C[C@H]3O)ccc(F)c2N1` [Example 311] came in with a melting point of 187 °C.

In turn, `O=C1CCc2c(OC[C@]3(O)CCN(c4c(F)cc(OC(F)F)cc4F)C[C@H]3O)ccc(F)c2N1` [Example 315] displayed a melting point of 166 °C.

In the case of `CCOc1cc(F)c(N2CC[C@@](O)(COc3ccc(F)c4c3CCC(=O)N4)[C@H](O)C2)c(F)c1` [Example 317], the melting point was in the range of 176 to 178 °C.

`O=C1CCc2c(OC[C@]3(O)CCN(c4ccc(Cl)cc4F)C[C@H]3O)cc(F)c(F)c2N1` [Example 324] came in with a melting point of 192.6 to 193.4 °C.

`O=C1CCc2c(OC[C@]3(O)CCN(c4c(F)cc(Br)cc4F)C[C@H]3O)ccc(Cl)c2N1` [Example 326] came in with a melting point of 203.6 to 203.7 °C.

Turning to `O=C1CCc2c(OC[C@]3(O)CCN(c4ccc(Cl)cc4F)C[C@H]3O)ccc(Cl)c2N1` [Example 328], the melting point is 185 to 186.4 °C.

`O=C1CCc2c(OC[C@]3(O)CCN(c4ccc(F)cc4)C[C@H]3O)ccc(F)c2N1` [Example 337] gave a melting point of 185.2 to 185.3 °C.

For `O=c1ccc2c(OC[C@]3(O)CCN(c4c(F)cc(Cl)cc4F)C[C@H]3O)ccc(F)c2[nH]1` [Example 367], the melting point lay in the range of 247.4 to 247.5 °C.

Usually melting point stands for the temperature, or range, at which the solid turns liquid.
